Test results published in EP3428647A1, “EXPRESSION SIGNATURE FOR GLIOMA DIAGNOSIS AND/OR PROGNOSIS IN A SUBJECT” (Consejo Superior de Investigaciones Científicas (CSIC), priority 2017, dated 2019).
Read-outs that look alike come from different tables or passages of the source.

Legend:
SF268 = assay: Cytotoxic assay MTT, monolayer culture; assay type: cell-based, human; conditions: for IC50: Homo sapiens, monolayer
Method: (§1) The human Glioblastoma cell line SF268 and U251MG were cultured in RPMI 1640 medium (SIGMA) supplemented with 10% Fetal Bovine Serum (FBS) at 37°C under 5% CO2 atmosphere. For DNA transfection, SF268 and U251MG were transfected with Mirus TransIT-X2 Dynamic Delivery System (Mirus MIR6000) in exponential phase with 2.5 µg of a small hairping RNA (shRNA) against NAMPT (QIAGEN SureSilencing shRNA insert sequence: 5'-[…]-3' (SEQ ID NO: 17)), 2.5 µg of DNA carrying an hygromycin empty vector (QIAGEN noncoding sequence: 5'-[…]-3' (SEQ ID NO: 18)) and 2.5 µg of DNA of pCMV-hygromycin carrying a cDNA of NAMPT gene (SinoBiological HG10990-M).
5x10^3 SF268 cells were seeded then treated with FK866 24 hours later. After 96 hours, cell viability was measured with MTT.
(§2) For the assay, 5x10^3 cells were seeded and then treated with the different compound at 11 different concentrations at 1/3 dilutions after 24 hours. Then, 96 hours later, cell viability was measured via MTT assay and validated independently by crystal violet staining. IC50 was calculated as the concentration allowing 50% survival compared to day 0 controls. Combination experiments were performed testing 11 different concentrations at 1/3 dilutions of FK866 and maintaining same suboptimal concentration of TMZ (as indicated) in all tested points.

U251MG = assay: Cytotoxic assay MTT, monolayer culture; assay type: cell-based; conditions: Homo sapiens
Method: as §1, §2

SF268 tumorspheres = assay: Cytotoxic assay, tumorsphere specific assay; assay type: cell-based, human; conditions: for IC50: Homo sapiens
Method: (§3) A total of 5x10^3 cells/mL/well were seeded in Ultra-low Attachment Plates containing MammoCultTM Basal Medium (Human) (Stem Cell Tech) supplied with 0.48 mg/mL hydrocortisone, 0.2% heparin solution and 10% MammoCult™ Proliferation Supplement (Human). After 4 days, primary tumorspheres were measured, both in size and in number, using an inverted microscope (Olympus CKX41).
as §2

U251MG tumorspheres = assay: Cytotoxic assay, tumorsphere specific assay; assay type: cell-based; conditions: Homo sapiens
Method: as §3, §2

[1] = test system: SF268 NAMPT-underexpressing cells; assay: Proliferation assay (growth curve), rescue of NAMPT-underexpressing cells; assay type: cell-based, human; conditions: 1 mM NMN; compared to sh
Method: A time course curve of parental (empty vector transfected cells) and NAMPT both cDNA and shRNA-expressing cells was generated by seeding […] in 2.2 cm bottom-well diameter dishes in triplicate samples. After 24 hours, medium was changed (day 0) and the indicated culture media added. Every 24 hours, cells were fixed and stained with crystal violet 1% (SIGMA C6158-50G). After extensive washing, crystal violet was solubilized in 20% acetic acid (Sigma) and quantified at 595 nm absorbance as a relative measure of cell number (BIORAD iMarkTM Microplate Reader). Values are expressed as the percentage of cell growth of cells growing in the presence of 10% FBS. Zero percent refers to the number of cells at day 0.
(§4) NAMPT catalyzes the conversion of nicotinamide to nicotinamide mononucleotide (NMN), which is the rate-limiting step in the NAD salvage pathway. If the enzymatic activity of NAMPT is directly responsible for these phenotypes, the phenotype should be recovered by directly adding the product of the enzyme to cells. Therefore, we repeated the previous surrogate experiments and added saturating concentrations of NMN to cells expressing low levels of NAMPT (sh supplemented with NMN, sh+NMN). In these experiments, we rescued the parental phenotypes by supplying the cells with the NAMPT metabolic product NMN (Figure 6A-D left). […]

[2] = test system: SF268 NAMPT-underexpressing cells; assay: Colony formation (clonogenicity) assay, rescue; assay type: cell-based, human; conditions: 1 mM NMN; compared to sh
Method: (§5) 10^3 cells were seeded in 10 cm plates, every condition in triplicate. The medium was replaced every 3 days and after 12 days the colonies were fixed and stained with a Crystal violet assay. After extensive-washing, colonies were counted. Values are expressed in number of observed colonies among 10^3 seeded cells. To analyze the clonal heterogeneity, 10^2 random colonies were classified in triplicate depending on its phenotype: Holoclone, Meroclone and Paraclone (Li H. et al 2008.; Garcia-Heredia JM, Lucena-Cacace A, Verdugo-Sivianes EM, Perez M, Carnero A. The cargo protein MAP17 (PDZK1IP1) regulates the cancer stem cell pool activating the Notch pathway by abducting NUMB. Clin Cancer Res. 2017 Feb 2. doi: 10.1158/1078-0432.CCR-16-2358. [
as §4

[3] = test system: NAMPT- underexpressing cells; assay: Clonal heterogeneity analysis (clone phenotypes), rescue; assay type: cell-based, human; conditions: 1 mM NMN; both cell lines
Method: as §5, §4

[4] = test system: SF268 and U251MG NAMPT-underexpressing cells; assay: FACS analysis of CD133 and CD44, rescue; assay type: cell-based, human; conditions: 1 mM NMN; both cell lines
Method: Single cells were individually seeded through cell sorting (BD FACS Jazz) in 96 well Ultra-low attachment plates containing MammoCultTM Basal medium (Human) (Stem Cell Tech) supplied with hydrocortisone 0.48 mg/mL, Heparin solution 0.2% and 10% MammoCult™ Proliferation Supplement (Human). After 21 days, primary tumorspheres formed were measured both in size and number using inverted microscope (Olympus CKX41). Fluorescence-activated cell sorting (FAC). For FACS staining, live cells were incubated with CD133 (AC133-PE, Miltenyi) and CD44 (PE, Miltenyi) for 30 minutes at dilutions specified in the manufacturer's protocols.
NAMPT catalyzes the conversion of nicotinamide to nicotinamide mononucleotide (NMN), which is the rate-limiting step in the NAD salvage pathway. If the enzymatic activity of NAMPT is directly responsible for these phenotypes, the phenotype should be recovered by directly adding the product of the enzyme to cells. Therefore, we repeated the previous surrogate experiments and added saturating concentrations of NMN to cells expressing low levels of NAMPT (sh supplemented with NMN, sh+NMN). In these experiments, we rescued the parental phenotypes by supplying the cells with the NAMPT metabolic product NMN (Figure 6A-D left). […] Similar results were found using a second shRNA against NAMPT (Figure 4A, B). […]

[5] = test system: SF268 NAMPT-underexpressing cells; assay: Sphere-forming assay, rescue; assay type: cell-based, human; conditions: 1 mM NMN; compared to sh
Method: as §3
NAMPT catalyzes the conversion of nicotinamide to nicotinamide mononucleotide (NMN), which is the rate-limiting step in the NAD salvage pathway. If the enzymatic activity of NAMPT is directly responsible for these phenotypes, the phenotype should be recovered by directly adding the product of the enzyme to cells. Therefore, we repeated the previous surrogate experiments and added saturating concentrations of NMN to cells expressing low levels of NAMPT (sh supplemented with NMN, sh+NMN). In these experiments, we rescued the parental phenotypes by supplying the cells with the NAMPT metabolic product NMN (Figure 6A-D left). […] Similar results were found using a second shRNA against NAMPT (Figure 4A, B).
Similar results were found using a second shRNA against NAMPT (Figure 4A, B).

[6] = SF-268, SF268 NAMPT (overexpressing), combined with constant 100 µM TMZ, read-out: IC50 FK866 + 100 µM TMZ (nM ± SD)
[7] = SF-268, SF268 sh (NAMPT shRNA), combined with constant 100 µM TMZ, read-out: IC50 FK866 + 100 µM TMZ (nM ± SD)
[8] = SF-268, SF268 v (vector only), combined with constant 100 µM TMZ, read-out: IC50 FK866 + 100 µM TMZ (nM ± SD)
[9] = U-251, U251MG NAMPT (overexpressing), combined with constant 150 µM TMZ, read-out: IC50 FK866 + 150 µM TMZ (nM ± SD)
[10] = U-251, U251MG sh (NAMPT shRNA), combined with constant 150 µM TMZ, read-out: IC50 FK866 + 150 µM TMZ (nM ± SD)
[11] = U-251, U251MG v (vector only), combined with constant 150 µM TMZ, read-out: IC50 FK866 + 150 µM TMZ (nM ± SD)

Cn1nnc2c(C(N)=O)ncn2c1=O [TMZ, Temozolomide]
IC50 (SF268; SF-268, 96 h, SF268 NAMPT (overexpressing), monotherapy, 96 hours, read-out: IC50 TMZ (µM ± SD)): 174 ± 2.1 µM | IC50 (SF268; SF-268, 96 h, SF268 sh (NAMPT shRNA), monotherapy, 96 hours, read-out: IC50 TMZ (µM ± SD)): 163 ± 2.2 µM | IC50 (SF268; SF-268, 96 h, SF268 v (vector only), monotherapy, 96 hours, read-out: IC50 TMZ (µM ± SD)): 165 ± 1.9 µM | IC50 (U251MG; U-251, 96 h, U251MG NAMPT (overexpressing), monotherapy, 96 hours, read-out: IC50 TMZ (µM ± SD)): 201 ± 5.3 µM | IC50 (U251MG; U-251, 96 h, U251MG sh (NAMPT shRNA), monotherapy, 96 hours, read-out: IC50 TMZ (µM ± SD)): 204 ± 4.8 µM | IC50 (U251MG; U-251, 96 h, U251MG v (vector only), monotherapy, 96 hours, read-out: IC50 TMZ (µM ± SD)): 194 ± 3.4 µM | IC50 (SF268 tumorspheres; SF-268, SF268 NAMPT (overexpressing), monotherapy, read-out: IC50 TMZ (µM ± SD)): 173 ± 3.2 µM | IC50 (SF268 tumorspheres; SF-268, SF268 sh (NAMPT shRNA), monotherapy, read-out: IC50 TMZ (µM ± SD)): 174 ± 3.6 µM | IC50 (SF268 tumorspheres; SF-268, SF268 v (vector only), monotherapy, read-out: IC50 TMZ (µM ± SD)): 170 ± 2.1 µM | IC50 (U251MG tumorspheres; U-251, U251MG NAMPT (overexpressing), monotherapy, read-out: IC50 TMZ (µM ± SD)): 222 ± 4.7 µM | IC50 (U251MG tumorspheres; U-251, U251MG sh (NAMPT shRNA), monotherapy, read-out: IC50 TMZ (µM ± SD)): 221 ± 3.2 µM | IC50 (U251MG tumorspheres; U-251, U251MG v (vector only), monotherapy, read-out: IC50 TMZ (µM ± SD)): 224.5 ± 1.7 µM

NC(=O)c1ccc[n+](C2OC(COP(=O)([O-])O)C(O)C2O)c1 (stereo not drawn) [NMN, nicotinamide mononucleotide]
growth curve, vector-proliferation ratio [1]: can rescue the vector-proliferation ratio | clonogenicity [2]: can rescue the clonogenetic ability of the vector | number of holoclones [3]: can rescue the number of holoclones in the vector | levels of CD44 expression [4]: can rescue the levels of CD44 expression in the vector | levels of CD133 expression [4]: can rescue and surpass the levels of CD133 expression in the vector | tumorsphere area / number of tumorspheres [5]: can rescue the number of tumorspheres generated in the vector

O=C(/C=C/c1cccnc1)NCCCCC1CCN(C(=O)c2ccccc2)CC1 [FK866]
IC50 (SF268; SF-268, 96 h, SF268 NAMPT (overexpressing), monotherapy, 96 hours, read-out: IC50 FK866 (nM ± SD)): 0.0028 ± 0.0003 µM | IC50 (SF268; SF-268, 96 h, SF268 sh (NAMPT shRNA), monotherapy, 96 hours, read-out: IC50 FK866 (nM ± SD)): 0.0083 ± 0.0008 µM | IC50 (SF268; SF-268, 96 h, SF268 v (vector only), monotherapy, 96 hours, read-out: IC50 FK866 (nM ± SD)): 0.0052 ± 0.0009 µM | IC50 (SF268; [6]): 0.0002 ± 0.0004 µM | IC50 (SF268; [7]): 0.0061 ± 0.0002 µM | IC50 (SF268; [8]): 0.0024 ± 0.0004 µM | effect of combined treatment with TMZ on the values (SF268; both in mass cultures and tumorspheres): slightly sensitized | sensitivity of NAMPT-overexpressing cells in mass cultures (SF268; compared with parental cells and NAMPT underexpressing cells): more sensitive | IC50 (U251MG; U-251, 96 h, U251MG NAMPT (overexpressing), monotherapy, 96 hours, read-out: IC50 FK866 (nM ± SD)): 0.0153 ± 0.0012 µM | IC50 (U251MG; U-251, 96 h, U251MG sh (NAMPT shRNA), monotherapy, 96 hours, read-out: IC50 FK866 (nM ± SD)): 0.0223 ± 0.0006 µM | IC50 (U251MG; U-251, 96 h, U251MG v (vector only), monotherapy, 96 hours, read-out: IC50 FK866 (nM ± SD)): 0.0207 ± 0.0007 µM | IC50 (U251MG; [9]): 0.0051 ± 0.0014 µM | IC50 (U251MG; [10]): 0.0194 ± 0.0007 µM | IC50 (U251MG; [11]): 0.0143 ± 0.0013 µM | induced toxicity in tumorspheres (CIC population) (SF268 tumorspheres): effective | IC50 (SF268 tumorspheres; [6]): 0.0005 ± 0.0011 µM | IC50 (SF268 tumorspheres; SF-268, SF268 NAMPT (overexpressing), monotherapy, read-out: IC50 FK866 (nM ± SD)): 0.0025 ± 0.0004 µM | IC50 (SF268 tumorspheres; [7]): 0.0073 ± 0.0007 µM | IC50 (SF268 tumorspheres; SF-268, SF268 sh (NAMPT shRNA), monotherapy, read-out: IC50 FK866 (nM ± SD)): 0.0095 ± 0.0009 µM | IC50 (SF268 tumorspheres; [8]): 0.0042 ± 0.0003 µM | IC50 (SF268 tumorspheres; SF-268, SF268 v (vector only), monotherapy, read-out: IC50 FK866 (nM ± SD)): 0.0061 ± 0.0012 µM | IC50 (U251MG tumorspheres; [9]): 0.0072 ± 0.0007 µM | IC50 (U251MG tumorspheres; U-251, U251MG NAMPT (overexpressing), monotherapy, read-out: IC50 FK866 (nM ± SD)): 0.0113 ± 0.0013 µM | IC50 (U251MG tumorspheres; [10]): 0.0254 ± 0.0018 µM | IC50 (U251MG tumorspheres; U-251, U251MG sh (NAMPT shRNA), monotherapy, read-out: IC50 FK866 (nM ± SD)): 0.0273 ± 0.0014 µM | IC50 (U251MG tumorspheres; [11]): 0.0171 ± 0.0009 µM | IC50 (U251MG tumorspheres; U-251, U251MG v (vector only), monotherapy, read-out: IC50 FK866 (nM ± SD)): 0.0186 ± 0.0019 µM
